Data: patent US20100298141A1, “SUBSTITUTED PYRIDINE N-OXIDE HERBICIDES” (E. I. DU PONT DE NEMOURS AND COMPANY, priority 2007, published 2010)

Key:
barnyardgrass [1] = test: Test A pre-/postemergence greenhouse test; type: in vivo, Echinochloa crus-galli; conditions: for Plant response rating, Barnyardgrass: 0 to 100 scale where 0 is no effect and 100 is complete control; for Barnyardgrass plant response rating: 0 to 100 scale
How it was run: (§1)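 Visual injury ratings, made relative to untreated controls roughly ten days after treatment, cover both preemergence and postemergence application. Compounds in a surfactant-containing non-phytotoxic solvent were sprayed onto the soil surface after sowing and, simultaneously, onto young plants at the one- to two-leaf stage.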

crabgrass = test: Test A pre-/postemergence greenhouse test; type: in vivo, Digitaria sanguinalis; conditions: for Plant response rating, Crabgrass, Large: 0 to 100 scale where 0 is no effect and 100 is complete control; for Crabgrass, Large plant response rating: 0 to 100 scale
How it was run: as §1

giant foxtail = test: Test A pre-/postemergence greenhouse test; type: in vivo, Setaria faberi; conditions: for Plant response rating, Foxtail, Giant: 0 to 100 scale where 0 is no effect and 100 is complete control; for Foxtail, Giant plant response rating: 0 to 100 scale
How it was run: as §1

morningglory = test: Test A pre-/postemergence greenhouse test; type: in vivo, Ipomoea spp.; conditions: for Plant response rating, Morningglory: 0 to 100 scale where 0 is no effect and 100 is complete control; for Morningglory plant response rating: 0 to 100 scale
How it was run: as §1

redroot pigweed = test: Test A pre-/postemergence greenhouse test; type: in vivo, Amaranthus retroflexus; conditions: for Plant response rating, Pigweed: 0 to 100 scale where 0 is no effect and 100 is complete control; for Pigweed plant response rating: 0 to 100 scale
How it was run: as §1

velvetleaf = test: Test A pre-/postemergence greenhouse test; type: in vivo, Abutilon theophrasti; conditions: for Plant response rating, Velvetleaf: 0 to 100 scale where 0 is no effect and 100 is complete control; for Velvetleaf plant response rating: 0 to 100 scale
How it was run: as §1

wheat = test: Test A pre-/postemergence greenhouse test; type: in vivo, Triticum aestivum; conditions: for Plant response rating, Wheat: 0 to 100 scale where 0 is no effect and 100 is complete control; for Wheat plant response rating: 0 to 100 scale
How it was run: as §1

corn = test: Test A pre-/postemergence greenhouse test; type: in vivo, Zea mays; conditions: for Plant response rating, Corn: 0 to 100 scale where 0 is no effect and 100 is complete control; for Corn plant response rating: 0 to 100 scale
How it was run: as §1

rice = test: Test C flooded paddy test; type: in vivo, Oryza sativa; conditions: Flood
How it was run: (§2)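 In-water treatment: compound dosed into 3 cm flood over soil, water level unchanged throughout. Controls run alongside; visual assessment at day 13–15.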

umbrella sedge = test: Test C flooded paddy test; type: in vivo, Cyperus difformis; conditions: Flood
How it was run: as §2

duck salad = test: Test C flooded paddy test; type: in vivo, Heteranthera limosa; conditions: Flood
How it was run: as §2

barnyardgrass [2] = test: Test C flooded paddy test; type: in vivo, Echinochloa crus-galli; conditions: Flood
How it was run: as §2

[3] = Postemergence, 500 g ai/ha, 0 is no effect, 100 is complete control
[4] = Preemergence, 125 g ai/ha, 0 no effect, 100 complete control
[5] = 62 g ai/ha, scale 0 to 100 (0 no effect, 100 complete control)
[6] = 250 g ai/ha, scale 0 to 100, 0 no effect, 100 complete control, 13 to 15 days

| Compound | Plant response rating, Barnyardgrass (barnyardgrass [1]; Postemergence, 125 g ai/ha) | Barnyardgrass plant response rating (barnyardgrass [1]; [3]) | Barnyardgrass plant response rating (barnyardgrass [1]; [4]) | Plant response rating, Barnyardgrass (barnyardgrass [1]; Preemergence, 500 g ai/ha) | Plant response rating, Crabgrass, Large (crabgrass; Postemergence, 125 g ai/ha) | Crabgrass, Large plant response rating (crabgrass; [3]) | Crabgrass, Large plant response rating (crabgrass; [4]) | Plant response rating, Crabgrass, Large (crabgrass; Preemergence, 500 g ai/ha) | Plant response rating, Foxtail, Giant (giant foxtail; Postemergence, 125 g ai/ha) | Foxtail, Giant plant response rating (giant foxtail; [3]) | Foxtail, Giant plant response rating (giant foxtail; [4]) | Plant response rating, Foxtail, Giant (giant foxtail; Preemergence, 500 g ai/ha) | Plant response rating, Morningglory (morningglory; Postemergence, 125 g ai/ha) | Morningglory plant response rating (morningglory; [3]) | Morningglory plant response rating (morningglory; [4]) | Plant response rating, Morningglory (morningglory; Preemergence, 500 g ai/ha) | Plant response rating, Pigweed (redroot pigweed; Postemergence, 125 g ai/ha) | Pigweed plant response rating (redroot pigweed; [3]) | Pigweed plant response rating (redroot pigweed; [4]) | Plant response rating, Pigweed (redroot pigweed; Preemergence, 500 g ai/ha) | further results |
| --- | --- | --- | --- | --- | --- | --- | --- | --- | --- | --- | --- | --- | --- | --- | --- | --- | --- | --- | --- | --- | --- |
| Cn1nc(OC(F)F)c(C[S+]([O-])c2cccc[n+]2[O-])c1C(F)(F)F (centres unmarked) [Compound 74] | 50 | 80 | 70 | 90 | 40 | 80 | 60 | 90 | 60 | 90 | 80 | 90 | 40 | 80 | 20 | 90 | 50 | 60 | 60 | 70 | Plant response rating, Velvetleaf (velvetleaf; Postemergence, 125 g ai/ha): 20; Velvetleaf plant response rating (velvetleaf; [3]): 70; Velvetleaf plant response rating (velvetleaf; [4]): 0; Plant response rating, Velvetleaf (velvetleaf; Preemergence, 500 g ai/ha): 60; Plant response rating, Wheat (wheat; Postemergence, 125 g ai/ha): 20; Wheat plant response rating (wheat; [3]): 60; Wheat plant response rating (wheat; [4]): 0; Plant response rating, Wheat (wheat; Preemergence, 500 g ai/ha): 90; Plant response rating, Corn (corn; Postemergence, 125 g ai/ha): 0; Corn plant response rating (corn; [3]): 60; Corn plant response rating (corn; [4]): 0; Plant response rating, Corn (corn; Preemergence, 500 g ai/ha): 80; Plant response rating, Rice (rice; [5]): 10; Plant response rating, Rice (rice; [6]): 10; Plant response rating, Sedge, Umbrella (umbrella sedge; [5]): 0; Plant response rating, Sedge, Umbrella (umbrella sedge; [6]): 50; Plant response rating, Ducksalad (duck salad; [5]): 70; Plant response rating, Ducksalad (duck salad; [6]): 65; Plant response rating, Barnyardgrass (barnyardgrass [2]; [5]): 15; Plant response rating, Barnyardgrass (barnyardgrass [2]; [6]): 30 |
| Cn1nc(C(F)(F)C(F)(F)F)c(CS(=O)(=O)c2cccc[n+]2[O-])c1OCC(F)(F)F [Compound 84] | 70 | 80 | 90 | 100 | 70 | 80 | 60 | 90 | 70 | 80 | 80 | 100 | 20 | 70 | 70 | 90 | 40 | 70 | 60 | 100 | Plant response rating, Velvetleaf (velvetleaf; Postemergence, 125 g ai/ha): 20; Velvetleaf plant response rating (velvetleaf; [3]): 70; Velvetleaf plant response rating (velvetleaf; [4]): 70; Plant response rating, Velvetleaf (velvetleaf; Preemergence, 500 g ai/ha): 100; Plant response rating, Wheat (wheat; Postemergence, 125 g ai/ha): 30; Wheat plant response rating (wheat; [3]): 60; Wheat plant response rating (wheat; [4]): 40; Plant response rating, Wheat (wheat; Preemergence, 500 g ai/ha): 100; Plant response rating, Corn (corn; Postemergence, 125 g ai/ha): 0; Corn plant response rating (corn; [3]): 40; Corn plant response rating (corn; [4]): 0; Plant response rating, Corn (corn; Preemergence, 500 g ai/ha): 30; Plant response rating, Rice (rice; [5]): 30; Plant response rating, Rice (rice; [6]): 65; Plant response rating, Sedge, Umbrella (umbrella sedge; [5]): 75; Plant response rating, Sedge, Umbrella (umbrella sedge; [6]): 100; Plant response rating, Ducksalad (duck salad; [5]): 75; Plant response rating, Ducksalad (duck salad; [6]): 85; Plant response rating, Barnyardgrass (barnyardgrass [2]; [5]): 15; Plant response rating, Barnyardgrass (barnyardgrass [2]; [6]): 60 |
